Assay results reported in patent US20210205404A1, “PHARMACEUTICAL COMPOSITION OF KOR RECEPTOR AGONIST” (JIANGSU HENGRUI MEDICINE CO., LTD., priority 2018, published 2021).
Like-named read-outs stand apart in the source and are kept apart here. Square brackets hold non-standard residues; d marks the D form. Peptide text beside a SMILES is read from it. * marks the point of attachment. Gly(N-(2R-Ph-propyl)) = C[C@@H](CNCC(=O)O)c1ccccc1; Piperidin1yl(4-NH2,4-COOH) = NC1(C(=O)O)CCN(*)CC1

Key:
[1] = Solubility of the active ingredient (statement); assay type: physicochemical; details: free compound, background statement
[2] = Description: High performance liquid chromatography (HPLC) was determined on an Agilent 1200DAD high pressure liquid chromatograph (Sunfire C18 150×4.6 mm column) and Waters 2695-2996 high pressure liquid chromatograph (Gimini C18 150×4.6 mm column).
The study period was 20 days.

Compound | Solubility (in words) [1] | Purity % ([2]; 40° C., 5 days) | Purity % ([2]; 40° C., 10 days) | Purity % ([2]; 40° C., 20 days) | Purity % ([2]; 60° C., 5 days) | Purity % ([2]; 60° C., 10 days) | Purity % ([2]; 60° C., 20 days) | Purity % ([2]; 4500 Lux, 0 day (start value)) | Purity % ([2]; 4500 Lux, 5 days) | Purity % ([2]; 4500 Lux, 10 days) | Purity % ([2]; 4500 Lux, 20 days) | Stability of the salt (conclusion in words) ([2]; lighting, 40° C. and 60° C., 20 days)
CC(C)C[C@@H](NC(=O)[C@@H](Cc1ccccc1)NC(=O)CNC[C@H](C)c1ccccc1)C(=O)N[C@H](CCCCN)C(=O)N1CCC(N)(C(=O)O)CC1 [Compound A, 4-amino-N—[N^2—[N—[N—[N-((R)-2-phenylpropyl)glycyl]-D-phenylalanyl]-D-leucyl]-D-lysyl]piperidine-4-carboxylic acid] (H-[Gly(N-(2R-Ph-propyl))][dF][dL][dK]-{Piperidin1yl(4-NH2,4-COOH)}) | low solubility | – | – | – | – | – | – | – | – | – | – | –
CC(C)C[C@@H](NC(=O)[C@@H](Cc1ccccc1)NC(=O)CNC[C@H](C)c1ccccc1)C(=O)N[C@H](CCCCN)C(=O)N1CCC(N)(C(=O)O)CC1.Cl.Cl.Cl [Hydrochloride (1:3), 4-Amino-N—[N^2—[N—[N—[N-((R)-2-phenylpropyl)glycyl]-D-phenylalanyl]-D-leucyl]-D-lysyl]piperidine-4-carboxylic acid hydrochloride (1:3)] (H-[Gly(N-(2R-Ph-propyl))][dF][dL][dK]-{Piperidin1yl(4-NH2,4-COOH)}) | – | 96.54% | 96.42% | 96.41% | 96.42% | 96.43% | 96.41% | 96.50% | 95.57% | 94.27% | 94.24% | good stability
